Tests used:
Details in all cases: SEM
DR1501 = DR1501 (Homo sapiens, UniProt P01903+P01911); type: binding
HLA-DR0101 = HLA-DR0101 (Homo sapiens, UniProt P01903+P01911, A100R/D57E/F55L/F60I/F76Y/I96L/L162R/M171V/P40L/Q125E/R42F/V115G/Y59C); experiment: biochemical
DR0301 = DR0301 (Homo sapiens, UniProt P01903+P01911, A100K/A102G/A103R/A169T/F55Y/I96L/K41T/L162R/M171V/P40S/Q125H/Q178H/Q39Y/R42S/S66N/T106N/W38E/Y61H); type: binding

SMILES | IC50 (DR1501) | IC50 (HLA-DR0101) | IC50 (DR0301)
CC[C@H](C)[C@H](NC(=O)[C@H](CC(N)=O)NC(=O)[C@H](CCC(=O)O)NC(=O)[C@@H](NC(=O)[C@H](CC(C)C)NC(=O)[C@H](Cc1ccc(O)cc1)NC(=O)[C@H](Cc1c[nH]c2ccccc12)NC(=O)[C@H](CO)NC(=O)[C@H](CCCNC(=N)N)NC(=O)[C@H](CC(N)=O)NC(=O)[C@@H](N)CCC(=O)O)[C@@H](C)O)C(=O)N[C@@H](CCC(N)=O)C(=O)N[C@@H](CS)C(=O)N[C@@H](Cc1ccccc1)C(=O)N[C@@H](CC(C)C)C(=O)N1CCC[C@H]1C(=O)N[C@@H](CC(N)=O)C(=O)N1CCC[C@H]1C(=O)N[C@@H](C)C(=O)NCC(=O)O [FVIII581–600,593C] | 56 ± 4 µM | 50 ± 3 µM | 
CC[C@H](C)[C@H](NC(=O)[C@H](CC(N)=O)NC(=O)[C@@H](N)CCC(=O)O)C(=O)N[C@@H](CCC(N)=O)C(=O)N[C@@H](CCCNC(=N)N)C(=O)N[C@@H](Cc1ccccc1)C(=O)N[C@@H](CC(C)C)C(=O)N1CCC[C@H]1C(=O)N[C@@H](CC(N)=O)C(=O)N1CCC[C@H]1C(=O)N[C@@H](C)C(=O)NCC(=O)N[C@H](C(=O)N[C@@H](CCC(N)=O)C(=O)N[C@@H](CC(C)C)C(=O)N[C@@H](CCC(=O)O)C(=O)N[C@@H](CC(=O)O)C(=O)N1CCC[C@H]1C(=O)N[C@@H](CCC(=O)O)C(=O)N[C@@H](Cc1ccccc1)C(=O)O)C(C)C [FVIII589–608] |  |  | 50 ± 4 µM
